In ChEMBL document CHEMBL1201862, “PubChem BioAssay data set” (2004):
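Following 48 hours of exposure in 96-well plates, responses at five concentrations were used to interpolate endpoints linearly. GI50 is the concentration that inhibits growth by half.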 Calls of active or inactive are those of the source. No stated cut-off is given here; in the data, active = GI50 up to about 1.1 µM and inactive = higher.

Legend:
Assay in all cases: NCI anticancer screen, dose series, 48 h
786-0 = test system: 786-0
A498 = test system: A498
A549 = test system: A549
ACHN = test system: ACHN
BT-549 = test system: BT-549
CAKI-1 = test system: CAKI-1
CCRF-CEM = test system: CCRF-CEM
COLO 205 = test system: COLO 205
DU-145 = test system: DU-145
EKVX = test system: EKVX
HCC 2998 = test system: HCC 2998
HCT-116 = test system: HCT-116
HL-60 = test system: HL-60
HOP-62 = test system: HOP-62
HOP-92 = test system: HOP-92
HT-29 = test system: HT-29
Hs-578T = test system: Hs-578T
IGROV-1 = test system: IGROV-1
K562 = test system: K562
KM12 = test system: KM12
LOX IMVI = test system: LOX IMVI
M14 = test system: M14
MCF7 = test system: MCF7
MDA-MB-231 = test system: MDA-MB-231
MDA-MB-435 = test system: MDA-MB-435
MDA-N = test system: MDA-N
MOLT-4 = test system: MOLT-4
Malme-3M = test system: Malme-3M
NCI-H226 = test system: NCI-H226
NCI-H23 = test system: NCI-H23
NCI-H460 = test system: NCI-H460
NCI-H522 = test system: NCI-H522
NCI/ADR-RES = test system: NCI/ADR-RES
OVCAR-3 = test system: OVCAR-3
OVCAR-4 = test system: OVCAR-4
OVCAR-5 = test system: OVCAR-5
OVCAR-8 = test system: OVCAR-8
PC-3 = test system: PC-3
RPMI-8226 = test system: RPMI-8226
RXF 393 = test system: RXF 393
SF-268 = test system: SF-268
SF-295 = test system: SF-295
SF-539 = test system: SF-539
SK-MEL-28 = test system: SK-MEL-28
SK-MEL-2 = test system: SK-MEL-2
SK-MEL-5 = test system: SK-MEL-5
SK-OV-3 = test system: SK-OV-3
SN12C = test system: SN12C
SNB-19 = test system: SNB-19
SNB-75 = test system: SNB-75
SR = test system: SR
SW-620 = test system: SW-620
T47D = test system: T47D
TK-10 = test system: TK-10
U-251 = test system: U-251
UACC-257 = test system: UACC-257
UACC-62 = test system: UACC-62
UO-31 = test system: UO-31

Measured: GI50

CCOC(=O)C(NC(=O)c1ccccc1)(Nc1ccc(Cl)cc1C(F)(F)F)C(F)(F)F (stereo not drawn)
inactive: 786-0 8.95 µM | A498 6.05 µM | A549 4.59 µM | ACHN 9.42 µM | BT-549 6.37 µM | CAKI-1 7.5 µM | CCRF-CEM 1.7 µM | COLO 205 4.58 µM | DU-145 12.9 µM | EKVX 5.6 µM | HCC 2998 > 28.3 µM | HCT-116 3.78 µM | HL-60 1.98 µM | HOP-62 3.91 µM | HOP-92 4.99 µM | HT-29 2.15 µM | Hs-578T 39.3 µM | IGROV-1 4.03 µM | K562 2.47 µM | KM12 1.42 µM | LOX IMVI 5.33 µM | M14 4.13 µM | MCF7 4.83 µM | MDA-MB-231 6.31 µM | MDA-MB-435 1.26 µM | MDA-N 1.51 µM | MOLT-4 2.55 µM | Malme-3M 3.37 µM | NCI-H226 16.7 µM | NCI-H23 4.59 µM | NCI-H460 > 20.5 µM | NCI-H522 2.59 µM | NCI/ADR-RES 2.76 µM | OVCAR-3 3.57 µM | OVCAR-4 9.77 µM | OVCAR-5 13.5 µM | OVCAR-8 5.36 µM | PC-3 3.13 µM | RPMI-8226 2.96 µM | RXF 393 3.44 µM | SF-268 > 37.4 µM | SF-295 4.03 µM | SF-539 5.71 µM | SK-MEL-28 6.97 µM | SK-MEL-2 4.74 µM | SK-MEL-5 4.91 µM | SK-OV-3 9.4 µM | SN12C 4.45 µM | SNB-19 5.48 µM | SNB-75 2.29 µM | SR 2.28 µM | SW-620 2.88 µM | T47D 4.39 µM | TK-10 8.26 µM | U-251 3.74 µM | UACC-257 9.64 µM | UACC-62 5.3 µM | UO-31 5.21 µM
